Tested on: NCI-H196 complex spheroid viability
Assay: Anticancer human tumor NCI-H196 cell line growth inhibition [LSD1];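 also: spheroids exposed to agents for 7 days before readout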;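 as to viability, T/C: 100% = DMSO vehicle control viability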
Details: for IC50: curve of first compound; for viability, T/C: stronger effect = lower value; active = viability on the fitted dose curve at most 10% of control; inactive = the rest
Procedure, shortened: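 Multicellular complex spheroids of tumor cells with human endothelial cells (HUVEC) and mesenchymal stem cells; the LSD1 inhibitor iadademstat was combined with standard-of-care or investigational agents. Top concentration at or near clinical Cmax, half-log dilutions; final DMSO ≤0.25%.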

[1] = second compound 0.1 µM, first compound 0.00949 µM
[2] = second compound 0.1 µM, first compound 0.03 µM
[3] = second compound 0.1 µM, first compound 0.0949 µM
[4] = second compound 0.1 µM, first compound 0.3 µM
[5] = second compound 0.316 µM, first compound 0.00949 µM
[6] = second compound 0.316 µM, first compound 0.03 µM
[7] = second compound 0.316 µM, first compound 0.0949 µM
[8] = second compound 0.316 µM, first compound 0.3 µM
[9] = second compound 1 µM, first compound 0.00949 µM
[10] = second compound 1 µM, first compound 0.03 µM
[11] = second compound 1 µM, first compound 0.0949 µM
[12] = second compound 1 µM, first compound 0.3 µM
[13] = second compound 3.16 µM, first compound 0.00949 µM
[14] = second compound 3.16 µM, first compound 0.03 µM
[15] = second compound 3.16 µM, first compound 0.0949 µM
[16] = second compound 3.16 µM, first compound 0.3 µM
[17] = second compound 10 µM, first compound 0.00949 µM
[18] = second compound 10 µM, first compound 0.03 µM
[19] = second compound 10 µM, first compound 0.0949 µM
[20] = second compound 10 µM, first compound 0.3 µM

CCN(c1cc(-c2ccc(CN3CCOCC3)cc2)cc(C(=O)NCc2c(C)cc(C)[nH]c2=O)c1C)C1CCOCC1 + NC1CC1c1ccc(-c2cccc(O)c2)cc1
> 3 µM: IC50 (second compound 0.1 µM) | IC50 (second compound 0.316 µM) | IC50 (second compound 1 µM) | IC50 (second compound 3.16 µM) | IC50 (second compound 10 µM)
inactive: viability, T/C [1] 93.6% | viability, T/C [2] 91.8% | viability, T/C [3] 98% | viability, T/C [4] 108% | viability, T/C (second compound 0.1 µM, first compound 0.949 µM) 107% | viability, T/C (second compound 0.1 µM, first compound 3 µM) 118% | viability, T/C [5] 94.5% | viability, T/C [6] 97.8% | viability, T/C [7] 113% | viability, T/C [8] 104% | viability, T/C (second compound 0.316 µM, first compound 0.949 µM) 110% | viability, T/C (second compound 0.316 µM, first compound 3 µM) 110% | viability, T/C [9] 97.4% | viability, T/C [10] 102% | viability, T/C [11] 102% | viability, T/C [12] 106% | viability, T/C (second compound 1 µM, first compound 0.949 µM) 116% | viability, T/C (second compound 1 µM, first compound 3 µM) 112% | viability, T/C [13] 98.4% | viability, T/C [14] 99% | viability, T/C [15] 101% | viability, T/C [16] 102% | viability, T/C (second compound 3.16 µM, first compound 0.949 µM) 98.9% | viability, T/C (second compound 3.16 µM, first compound 3 µM) 103% | viability, T/C [17] 98.6% | viability, T/C [18] 109% | viability, T/C [19] 104% | viability, T/C [20] 104% | viability, T/C (second compound 10 µM, first compound 0.949 µM) 105% | viability, T/C (second compound 10 µM, first compound 3 µM) 92.9%

Cn1ncnc1C1c2n[nH]c(=O)c3cc(F)cc(c23)NC1c1ccc(F)cc1 (stereo not given) + NC1CC1c1ccc(-c2cccc(O)c2)cc1
> 0.1 µM: IC50 (second compound 0.1 µM) | IC50 (second compound 0.316 µM) | IC50 (second compound 1 µM) | IC50 (second compound 3.16 µM) | IC50 (second compound 10 µM)
inactive: viability, T/C (second compound 0.1 µM, first compound 0.000316 µM) 96.6% | viability, T/C (second compound 0.1 µM, first compound 0.001 µM) 100% | viability, T/C (second compound 0.1 µM, first compound 0.00316 µM) 102% | viability, T/C (second compound 0.1 µM, first compound 0.01 µM) 100% | viability, T/C (second compound 0.1 µM, first compound 0.0316 µM) 94.3% | viability, T/C (second compound 0.1 µM, first compound 0.1 µM) 98.3% | viability, T/C (second compound 0.316 µM, first compound 0.000316 µM) 104% | viability, T/C (second compound 0.316 µM, first compound 0.001 µM) 106% | viability, T/C (second compound 0.316 µM, first compound 0.00316 µM) 98.2% | viability, T/C (second compound 0.316 µM, first compound 0.01 µM) 102% | viability, T/C (second compound 0.316 µM, first compound 0.0316 µM) 101% | viability, T/C (second compound 0.316 µM, first compound 0.1 µM) 106% | viability, T/C (second compound 1 µM, first compound 0.000316 µM) 105% | viability, T/C (second compound 1 µM, first compound 0.001 µM) 98.9% | viability, T/C (second compound 1 µM, first compound 0.00316 µM) 101% | viability, T/C (second compound 1 µM, first compound 0.01 µM) 103% | viability, T/C (second compound 1 µM, first compound 0.0316 µM) 104% | viability, T/C (second compound 1 µM, first compound 0.1 µM) 106% | viability, T/C (second compound 3.16 µM, first compound 0.000316 µM) 92.2% | viability, T/C (second compound 3.16 µM, first compound 0.001 µM) 99.1% | viability, T/C (second compound 3.16 µM, first compound 0.00316 µM) 102% | viability, T/C (second compound 3.16 µM, first compound 0.01 µM) 102% | viability, T/C (second compound 3.16 µM, first compound 0.0316 µM) 99.2% | viability, T/C (second compound 3.16 µM, first compound 0.1 µM) 92.4% | viability, T/C (second compound 10 µM, first compound 0.000316 µM) 99.1% | viability, T/C (second compound 10 µM, first compound 0.001 µM) 104% | viability, T/C (second compound 10 µM, first compound 0.00316 µM) 95% | viability, T/C (second compound 10 µM, first compound 0.01 µM) 104% | viability, T/C (second compound 10 µM, first compound 0.0316 µM) 97.7% | viability, T/C (second compound 10 µM, first compound 0.1 µM) 91.4%

Nc1ncn(C2CC(O)C(CO)S2)c(=O)n1 (stereo not given) + NC1CC1c1ccc(-c2cccc(O)c2)cc1
> 0.3 µM: IC50 (second compound 0.1 µM) | IC50 (second compound 0.316 µM) | IC50 (second compound 1 µM) | IC50 (second compound 3.16 µM) | IC50 (second compound 10 µM)
inactive: viability, T/C (second compound 0.1 µM, first compound 0.000949 µM) 98.2% | viability, T/C (second compound 0.1 µM, first compound 0.003 µM) 105% | viability, T/C [1] 108% | viability, T/C [2] 101% | viability, T/C [3] 108% | viability, T/C [4] 102% | viability, T/C (second compound 0.316 µM, first compound 0.000949 µM) 107% | viability, T/C (second compound 0.316 µM, first compound 0.003 µM) 111% | viability, T/C [5] 112% | viability, T/C [6] 113% | viability, T/C [7] 112% | viability, T/C [8] 113% | viability, T/C (second compound 1 µM, first compound 0.000949 µM) 103% | viability, T/C (second compound 1 µM, first compound 0.003 µM) 110% | viability, T/C [9] 113% | viability, T/C [10] 109% | viability, T/C [11] 134% | viability, T/C [12] 116% | viability, T/C (second compound 3.16 µM, first compound 0.000949 µM) 101% | viability, T/C (second compound 3.16 µM, first compound 0.003 µM) 102% | viability, T/C [13] 106% | viability, T/C [14] 99.3% | viability, T/C [15] 117% | viability, T/C [16] 119% | viability, T/C (second compound 10 µM, first compound 0.000949 µM) 101% | viability, T/C (second compound 10 µM, first compound 0.003 µM) 109% | viability, T/C [17] 103% | viability, T/C [18] 102% | viability, T/C [19] 103% | viability, T/C [20] 99.5%

From PubChem BioAssay AID1918958 (Molecular Pharmacology Branch, DTP, NCI, 2023)
